These results are taken from patent publication US6624182B1, “Hydroxyphenylvinylthiazoles” (Ciba Specialty Chemicals Corporation, priority 1999, dated 2003).

The test system of one assay is S. aureus. The assay is described as follows: Determination of the minimum inhibitory concentration (MIC value) in microtitre plates. The assay is classed as cell-based. Conditions: Staphylococcus aureus; optical density at 620 nm, 48 hours at 37° C., MIC = ≦20% growth; tested at 100; 10 and 1 ppm (approximate values); (2), (3), (4) at 120; 60; 30; 15; 7.5; 3.75 ppm. The method, boiled down:
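DMSO-dissolved compounds were tested in 1:2 serial dilutions against bacteria in CASO bouillon, from inocula of 1−5×10^6 KBE/ml diluted 1:100. Growth was read by OD 620 nm after 48 h at 37 °C. MIC was the lowest concentration giving ≦20% growth versus the growth control, tested in duplicate.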

A further assay concerns E. coli. The description is as above. The conditions noted are these: Escherichia coli; optical density at 620 nm, 48 hours at 37° C., MIC = ≦20% growth; tested at 100; 10 and 1 ppm (approximate values); (2), (3), (4) at 120; 60; 30; 15; 7.5; 3.75 ppm. The assay is classed as cell-based, Escherichia coli NCTC 8196. In outline: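 E. coli NCTC 8196 grown overnight in CASO bouillon, adjusted to 1−5×10^6 KBE/ml, diluted 1:100 and added to DMSO-dissolved compounds in 1:2 dilution series. Incubated 48 h at 37° C; growth read as OD 620 nm. MIC is the lowest concentration giving ≤20% growth versus growth control; duplicates.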

Take `Oc1ccc(/C=C/c2nc(-c3ccc(F)cc3)cs2)cc1` [Compound of formula (2)]: the MIC with S. aureus and against E. coli was greater than 100 µg/mL in each case.
In the case of `CC(C)(C)c1csc(/C=C/c2ccccc2O)n1` [Compound of formula (3)], the values for the MIC against S. aureus and with E. coli were 60 µg/mL and greater than 100 µg/mL, respectively.
As to `Oc1ccc(/C=C/c2nc(-c3ccccc3)cs2)cc1` [Compound of formula (4)], the minimum inhibitory concentration (MIC) in the assay with S. aureus and against E. coli was greater than 100 µg/mL throughout.
